# Reference: US10016354B2, “Compositions containing polymeric, ionic compounds comprising imidazolium groups” (BASF SE, priority 2011, dated 2018)
# Experiments:
# [1] = system: Staphylococcus aureus ATCC 29213; assay: Minimum Inhibitory Concentration (MIC) test; format: cell-based; details: Table 3, known antibiotics as control; 24 h at 37° C.
# [2] = system: Pseudomonas aeruginosa ATCC 27853; assay: Minimum Inhibitory Concentration (MIC) test; format: cell-based; details: Table 3, known antibiotics as control; 24 h at 37° C.
compound,measurement,setting,value
CC1=C(C(=O)O)N2C(=O)[C@@H](NC(=O)[C@H](N)c3ccccc3)[C@H]2SC1 [Cephalexine],MIC Staphylococcus aureus ATCC 29213 = DSM 2569,[1],4 µg/mL
same,MIC Pseudomonas aeruginosa ATCC 27853 = DSM 1117,[2],>4096 µg/mL
